Results as given in patent publication US20250243180A1, “TARGETED PROTEIN DEGRADATION” (Monte Rosa Therapeutics AG, priority 2023, published 2025).
Where two headings read alike, the source gives them in different places.

Columns and labels:
CRBN-DDB1 = CRBN-DDB1 (Homo sapiens (Human), UniProt Q96SW2); experiment: Compound binding to CRBN by HTRF assay
How it was run: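 HTRF displacement of Cy5-thalidomide probe (100 nM) from His-tagged CRBN-DDB1 (2.5 nM) with anti-His terbium cryptate, in HEPES/NaCl/TCEP/EDTA/Tween20 buffer; 11-point 1:3 dilution series, 30 min at ambient temperature. Signal (665/620 nm) normalized to lenalidomide and DMSO controls; EC50 fitted, Ki by Cheng-Prusoff from geometric mean EC50.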

NEK7 = NEK7 (Homo sapiens (Human), UniProt Q8TDX7+Q96SW2); experiment: NEK7 NanoBiT degradation assay in Cal51 NEK7 NanoBiT cell line; assay type: cell-based; settings: Cal51 NEK7 NanoBiT cells, 24 hours; for Dmax: CAL-51
Sequence of NEK7 (Q8TDX7 whole entry): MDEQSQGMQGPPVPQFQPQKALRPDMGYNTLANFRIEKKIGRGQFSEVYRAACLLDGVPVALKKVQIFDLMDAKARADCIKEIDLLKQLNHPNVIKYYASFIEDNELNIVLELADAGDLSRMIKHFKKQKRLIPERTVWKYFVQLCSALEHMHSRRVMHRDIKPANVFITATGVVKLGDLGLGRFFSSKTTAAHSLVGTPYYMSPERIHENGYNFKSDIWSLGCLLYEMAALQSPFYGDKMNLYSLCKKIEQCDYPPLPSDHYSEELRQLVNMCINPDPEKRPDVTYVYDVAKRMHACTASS
Sequence of NEK7 (Q96SW2 whole entry): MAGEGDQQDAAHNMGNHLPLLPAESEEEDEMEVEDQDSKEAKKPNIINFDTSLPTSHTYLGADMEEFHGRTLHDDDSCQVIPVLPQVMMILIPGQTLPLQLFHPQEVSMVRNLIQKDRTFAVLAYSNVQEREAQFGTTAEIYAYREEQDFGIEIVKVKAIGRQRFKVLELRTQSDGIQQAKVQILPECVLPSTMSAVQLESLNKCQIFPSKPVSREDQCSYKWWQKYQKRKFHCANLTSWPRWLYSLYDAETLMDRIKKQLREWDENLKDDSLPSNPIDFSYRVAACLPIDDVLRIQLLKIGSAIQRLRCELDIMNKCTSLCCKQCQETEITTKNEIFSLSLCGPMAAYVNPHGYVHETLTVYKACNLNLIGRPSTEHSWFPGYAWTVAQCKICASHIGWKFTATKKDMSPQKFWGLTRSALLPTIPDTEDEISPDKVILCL
Sequence of NEK7 (Q16531 2-1140 partner): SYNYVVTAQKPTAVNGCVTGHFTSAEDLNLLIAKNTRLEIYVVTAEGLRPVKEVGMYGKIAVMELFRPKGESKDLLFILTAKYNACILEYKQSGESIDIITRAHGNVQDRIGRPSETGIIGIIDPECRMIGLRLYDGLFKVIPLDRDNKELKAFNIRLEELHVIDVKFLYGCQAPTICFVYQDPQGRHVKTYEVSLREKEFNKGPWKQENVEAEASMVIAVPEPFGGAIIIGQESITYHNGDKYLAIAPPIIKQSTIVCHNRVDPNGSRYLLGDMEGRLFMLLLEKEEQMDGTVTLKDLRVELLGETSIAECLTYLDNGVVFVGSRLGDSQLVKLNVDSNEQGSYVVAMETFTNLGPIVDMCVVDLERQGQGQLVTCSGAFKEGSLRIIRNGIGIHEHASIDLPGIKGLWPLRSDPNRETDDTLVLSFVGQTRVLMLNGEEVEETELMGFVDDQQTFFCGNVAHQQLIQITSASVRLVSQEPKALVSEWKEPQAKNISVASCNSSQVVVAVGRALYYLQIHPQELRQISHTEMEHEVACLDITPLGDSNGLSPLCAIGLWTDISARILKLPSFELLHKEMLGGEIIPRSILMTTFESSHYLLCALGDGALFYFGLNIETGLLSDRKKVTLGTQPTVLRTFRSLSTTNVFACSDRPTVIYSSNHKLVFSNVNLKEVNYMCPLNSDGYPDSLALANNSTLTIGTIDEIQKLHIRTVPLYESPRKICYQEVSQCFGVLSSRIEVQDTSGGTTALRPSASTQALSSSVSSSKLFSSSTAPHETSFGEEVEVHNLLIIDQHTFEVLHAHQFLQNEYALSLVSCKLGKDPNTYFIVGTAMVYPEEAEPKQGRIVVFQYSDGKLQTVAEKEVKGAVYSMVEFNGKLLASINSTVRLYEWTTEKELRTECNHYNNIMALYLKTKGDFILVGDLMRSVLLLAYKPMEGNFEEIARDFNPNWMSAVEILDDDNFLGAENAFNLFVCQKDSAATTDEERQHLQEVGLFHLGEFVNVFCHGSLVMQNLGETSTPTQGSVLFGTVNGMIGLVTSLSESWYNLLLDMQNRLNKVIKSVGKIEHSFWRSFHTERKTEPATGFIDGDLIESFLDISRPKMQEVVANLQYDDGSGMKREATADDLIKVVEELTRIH
How it was run: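 Cal51 cells with CRISPR knock-in HiBiT-tagged endogenous NEK7 plus stable LgBiT, in live-cell Endurazine medium, seeded 16 h before dosing. Compounds at final 1 μM to 0.05 nM for 24 h at 37 °C, then luminescence read. Response normalized to plate controls and fitted with a 4-parameter logistic giving EC50.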

[1] = NEK7 degradation, read-out: NanoBiT Dmax
[2] = NEK7 degradation, read-out: NanoBiT DC50

Sequence of CRBN-DDB1 (Q96SW2 whole entry): as the sequence (Q96SW2 whole entry) above
Sequence of CRBN-DDB1 (Q16531 whole entry partner): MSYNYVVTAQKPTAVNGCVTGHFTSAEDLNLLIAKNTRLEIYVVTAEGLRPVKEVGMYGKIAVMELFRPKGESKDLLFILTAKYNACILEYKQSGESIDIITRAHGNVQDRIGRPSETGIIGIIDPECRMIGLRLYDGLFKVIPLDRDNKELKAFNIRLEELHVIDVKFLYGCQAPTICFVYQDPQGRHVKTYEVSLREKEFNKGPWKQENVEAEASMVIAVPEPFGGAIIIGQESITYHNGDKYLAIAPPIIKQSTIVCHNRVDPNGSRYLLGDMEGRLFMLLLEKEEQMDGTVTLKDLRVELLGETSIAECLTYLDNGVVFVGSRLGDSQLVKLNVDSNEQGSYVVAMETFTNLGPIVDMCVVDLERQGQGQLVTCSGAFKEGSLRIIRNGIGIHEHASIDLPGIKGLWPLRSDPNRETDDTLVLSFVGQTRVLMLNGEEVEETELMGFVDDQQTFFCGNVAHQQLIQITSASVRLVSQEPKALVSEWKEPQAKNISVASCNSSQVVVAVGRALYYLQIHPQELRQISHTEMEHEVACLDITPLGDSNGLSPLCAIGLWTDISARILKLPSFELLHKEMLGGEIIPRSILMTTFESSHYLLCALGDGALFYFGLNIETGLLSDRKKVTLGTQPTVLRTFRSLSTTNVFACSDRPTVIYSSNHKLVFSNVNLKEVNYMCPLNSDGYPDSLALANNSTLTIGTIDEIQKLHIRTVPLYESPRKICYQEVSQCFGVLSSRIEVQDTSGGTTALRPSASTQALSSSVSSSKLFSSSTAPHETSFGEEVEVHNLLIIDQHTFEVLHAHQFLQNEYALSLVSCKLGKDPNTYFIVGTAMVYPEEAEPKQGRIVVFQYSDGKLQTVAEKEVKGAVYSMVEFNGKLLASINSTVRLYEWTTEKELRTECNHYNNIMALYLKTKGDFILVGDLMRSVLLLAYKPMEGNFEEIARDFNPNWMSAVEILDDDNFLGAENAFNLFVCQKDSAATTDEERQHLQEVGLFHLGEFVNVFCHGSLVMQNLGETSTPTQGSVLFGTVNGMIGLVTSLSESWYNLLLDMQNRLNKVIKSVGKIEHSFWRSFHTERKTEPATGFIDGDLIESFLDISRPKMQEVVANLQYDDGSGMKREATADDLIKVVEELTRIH

Compound: O=C1CCC(c2c(Cl)cc(CNC(=O)C3(c4ccccc4)COC3)cc2Cl)C(=O)N1 (stereo not drawn) [Compound 129]
- EC50 (CRBN-DDB1): 90 nM
- EC50 (CRBN-DDB1; HTRF class, Cereblon binding): ≤ 100 nM
- Dmax (NEK7; read-out: NEK7 NanoBiT Dmax): 90%
- Dmax (NEK7; [1]): > 75%
- DC50 (NEK7; read-out: NEK7 NanoBiT DC50): 22 nM
- DC50 (NEK7; [2]): ≤ 100 nM

Compound: Cn1ncc2ccc(C3(C(=O)NCc4cc(Cl)c(C5CCC(=O)NC5=O)c(Cl)c4)CCOCC3)cc21 (stereo not drawn) [Compound 133]
- EC50 (CRBN-DDB1): 30 nM
- EC50 (CRBN-DDB1; HTRF class, Cereblon binding): ≤ 100 nM
- Dmax (NEK7; read-out: NEK7 NanoBiT Dmax): 94%
- Dmax (NEK7; [1]): > 75%
- DC50 (NEK7; read-out: NEK7 NanoBiT DC50): 2 nM
- DC50 (NEK7; [2]): ≤ 100 nM

Compound: Cc1ncc(C(C)(C)C(=O)NCc2cc(Cl)c(C3CCC(=O)NC3=O)c(Cl)c2)o1 (stereo not drawn) [Compound 282]
- EC50 (CRBN-DDB1): 110 nM
- EC50 (CRBN-DDB1; HTRF class, Cereblon binding): 100 to 1000 nM
- Dmax (NEK7; read-out: NEK7 NanoBiT Dmax): 78%
- Dmax (NEK7; [1]): > 75%
- DC50 (NEK7; read-out: NEK7 NanoBiT DC50): 26 nM
- DC50 (NEK7; [2]): ≤ 100 nM

Compound: CC(C)(C(=O)NCc1cc(Cl)c(C2CCC(=O)NC2=O)c(Cl)c1)c1ccc2ncoc2n1 (stereo not drawn) [Compound 184]
- EC50 (CRBN-DDB1): 180 nM
- EC50 (CRBN-DDB1; HTRF class, Cereblon binding): 100 to 1000 nM
- Dmax (NEK7; read-out: NEK7 NanoBiT Dmax): 95%
- Dmax (NEK7; [1]): > 75%
- DC50 (NEK7; read-out: NEK7 NanoBiT DC50): 3 nM
- DC50 (NEK7; [2]): ≤ 100 nM

Compound: CC(C)(C(=O)NCc1cc(Cl)c(C2CCC(=O)NC2=O)c(Cl)c1)c1ccc2[nH]ccc2c1 (stereo not drawn) [Compound 91]
- EC50 (CRBN-DDB1): 40 nM
- EC50 (CRBN-DDB1; HTRF class, Cereblon binding): ≤ 100 nM
- Dmax (NEK7; read-out: NEK7 NanoBiT Dmax): 97%
- Dmax (NEK7; [1]): > 75%
- DC50 (NEK7; read-out: NEK7 NanoBiT DC50): 0.4 nM
- DC50 (NEK7; [2]): ≤ 100 nM

Compound: CC(C)(C(=O)NCc1cc(Cl)c(C2CCC(=O)NC2=O)c(Cl)c1)c1ncc(N2CCC2)cn1 (stereo not drawn) [Compound 165]
- EC50 (CRBN-DDB1): 170 nM
- EC50 (CRBN-DDB1; HTRF class, Cereblon binding): 100 to 1000 nM
- Dmax (NEK7; read-out: NEK7 NanoBiT Dmax): 69%
- Dmax (NEK7; [1]): 50 to 75%
- DC50 (NEK7; read-out: NEK7 NanoBiT DC50): 47 nM
- DC50 (NEK7; [2]): ≤ 100 nM

Compound: CC(C)(C(=O)NCc1cc(Cl)c(C2CCC(=O)NC2=O)c(Cl)c1)C1CCCCC1 (stereo not drawn) [Compound 211]
- EC50 (CRBN-DDB1): 900 nM
- EC50 (CRBN-DDB1; HTRF class, Cereblon binding): 100 to 1000 nM
- Dmax (NEK7; read-out: NEK7 NanoBiT Dmax): 90%
- Dmax (NEK7; [1]): > 75%
- DC50 (NEK7; read-out: NEK7 NanoBiT DC50): 8 nM
- DC50 (NEK7; [2]): ≤ 100 nM

Compound: CC(C)(C(=O)NCc1cc(Cl)c([C@@H]2CCC(=O)NC2=O)c(Cl)c1)c1ncc(C#N)cn1 (single isomer, unassigned) [Compound 152]
- EC50 (CRBN-DDB1): 240 nM
- EC50 (CRBN-DDB1; HTRF class, Cereblon binding): 100 to 1000 nM
- Dmax (NEK7; read-out: NEK7 NanoBiT Dmax): 95%
- Dmax (NEK7; [1]): > 75%
- DC50 (NEK7; read-out: NEK7 NanoBiT DC50): 2 nM
- DC50 (NEK7; [2]): ≤ 100 nM

Compound: CC(C)(C(=O)NCc1cc(Cl)c(C2CCC(=O)NC2=O)c(Cl)c1)c1cccc2ocnc12 (stereo not drawn) [Compound 171]
- EC50 (CRBN-DDB1): 120 nM
- EC50 (CRBN-DDB1; HTRF class, Cereblon binding): 100 to 1000 nM
- Dmax (NEK7; read-out: NEK7 NanoBiT Dmax): 90%
- Dmax (NEK7; [1]): > 75%
- DC50 (NEK7; read-out: NEK7 NanoBiT DC50): 7 nM
- DC50 (NEK7; [2]): ≤ 100 nM

Compound: Cn1ncc(C(C)(C)C(=O)NCc2cc(Cl)c(C3CCC(=O)NC3=O)c(Cl)c2)cc1=O (stereo not drawn) [Compound 9, N-(3,5-dichloro-4-(2,6-dioxopiperidin-3-yl)benzyl)-2-methyl-2-(1-methyl-6-oxo-1,6-dihydropyridazin-4-yl)propanamide]
- EC50 (CRBN-DDB1): 210 nM
- EC50 (CRBN-DDB1; HTRF class, Cereblon binding): 100 to 1000 nM
- Dmax (NEK7; read-out: NEK7 NanoBiT Dmax): 85%
- Dmax (NEK7; [1]): > 75%
- DC50 (NEK7; read-out: NEK7 NanoBiT DC50): 22 nM
- DC50 (NEK7; [2]): ≤ 100 nM

Compound: CC(C)(C(=O)NCc1cc(Cl)c(C2CCC(=O)NC2=O)c(Cl)c1)c1ccc(C(F)(F)F)nn1 (stereo not drawn) [Compound 191]
- EC50 (CRBN-DDB1): 170 nM
- EC50 (CRBN-DDB1; HTRF class, Cereblon binding): 100 to 1000 nM
- Dmax (NEK7; read-out: NEK7 NanoBiT Dmax): 85%
- Dmax (NEK7; [1]): > 75%
- DC50 (NEK7; read-out: NEK7 NanoBiT DC50): 13 nM
- DC50 (NEK7; [2]): ≤ 100 nM

Compound: CC(C)(C(=O)NCc1cc(Cl)c(C2CCC(=O)NC2=O)c(Cl)c1)c1ccc(C(N)=O)cc1 (stereo not drawn) [Compound 83]
- EC50 (CRBN-DDB1): 140 nM
- EC50 (CRBN-DDB1; HTRF class, Cereblon binding): 100 to 1000 nM
- Dmax (NEK7; read-out: NEK7 NanoBiT Dmax): 94%
- Dmax (NEK7; [1]): > 75%
- DC50 (NEK7; read-out: NEK7 NanoBiT DC50): 7 nM
- DC50 (NEK7; [2]): ≤ 100 nM

Compound: CC(C)(C(=O)NCc1cc(Cl)c(C2CCC(=O)NC2=O)c(Cl)c1)c1cnc(CC(F)F)cn1 (stereo not drawn) [Compound 240]
- EC50 (CRBN-DDB1): 150 nM
- EC50 (CRBN-DDB1; HTRF class, Cereblon binding): 100 to 1000 nM
- Dmax (NEK7; read-out: NEK7 NanoBiT Dmax): 69%
- Dmax (NEK7; [1]): 50 to 75%
- DC50 (NEK7; read-out: NEK7 NanoBiT DC50): 79 nM
- DC50 (NEK7; [2]): ≤ 100 nM

Compound: O=C1CCC(c2c(Cl)cc(CNC(=O)C3(c4ccccc4)CCOC3)cc2Cl)C(=O)N1 (stereo not drawn) [Compound 127, N-(3,5-dichloro-4-(2,6-dioxopiperidin-3-yl)benzyl)-3-phenyltetrahydrofuran-3-carboxamide]
- EC50 (CRBN-DDB1): 40 nM
- EC50 (CRBN-DDB1; HTRF class, Cereblon binding): ≤ 100 nM
- Dmax (NEK7; read-out: NEK7 NanoBiT Dmax): 90%
- Dmax (NEK7; [1]): > 75%
- DC50 (NEK7; read-out: NEK7 NanoBiT DC50): 5 nM
- DC50 (NEK7; [2]): ≤ 100 nM
